Data from patent US20040156869A1, “2-substituted quinazolin-4-ylamine analogues” (Neurogen Corporation, priority 2002, published 2004).

Biological target: human capsaicin receptor (VR1) (Homo sapiens, UniProt Q8NER1)
Assay: Capsaicin receptor binding assay ([3H]RTX competition, VR1-transfected HEK293 membranes)

Chain of human capsaicin receptor (VR1) (Q8NER1 whole entry): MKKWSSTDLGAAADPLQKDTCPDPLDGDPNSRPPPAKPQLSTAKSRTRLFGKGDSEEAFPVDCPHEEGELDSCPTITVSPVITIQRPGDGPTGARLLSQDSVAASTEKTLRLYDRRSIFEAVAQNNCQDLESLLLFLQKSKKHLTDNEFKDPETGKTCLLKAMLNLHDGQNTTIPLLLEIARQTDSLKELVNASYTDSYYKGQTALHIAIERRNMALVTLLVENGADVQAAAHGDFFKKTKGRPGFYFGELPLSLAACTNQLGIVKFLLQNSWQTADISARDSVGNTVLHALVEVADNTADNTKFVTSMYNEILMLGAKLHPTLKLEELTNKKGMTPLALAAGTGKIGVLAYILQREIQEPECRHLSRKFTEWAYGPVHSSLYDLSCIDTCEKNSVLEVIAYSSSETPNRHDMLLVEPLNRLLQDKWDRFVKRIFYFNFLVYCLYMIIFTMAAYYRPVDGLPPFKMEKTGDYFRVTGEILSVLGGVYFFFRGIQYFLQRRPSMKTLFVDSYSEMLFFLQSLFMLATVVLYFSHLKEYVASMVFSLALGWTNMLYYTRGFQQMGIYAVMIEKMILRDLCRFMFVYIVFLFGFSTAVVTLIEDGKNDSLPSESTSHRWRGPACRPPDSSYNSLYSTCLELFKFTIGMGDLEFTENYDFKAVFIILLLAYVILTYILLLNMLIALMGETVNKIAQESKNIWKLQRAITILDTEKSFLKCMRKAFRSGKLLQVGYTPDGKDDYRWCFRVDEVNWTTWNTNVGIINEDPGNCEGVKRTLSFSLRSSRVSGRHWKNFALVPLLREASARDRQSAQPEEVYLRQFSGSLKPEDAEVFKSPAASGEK

Ki, < 1 µM:
CN1CCC(COCc2nc(Nc3ccc(C(F)(F)F)cc3)c3ccc(-c4ncccc4C(F)(F)F)cc3n2)CC1 [Compound 247, [2-(1-Methyl-piperidin-4-ylmethoxymethyl)-7-(3-trifluoromethyl-pyridin-2-yl)-quinazolin-4-yl]-(4-trifluoromethyl-phenyl)-amine]
CC(C)COCc1nc(Nc2ccc(F)cc2)c2ccc(-c3ncccc3C(F)(F)F)nc2n1 [Compound 248, (4-Fluoro-phenyl)-[2-isobutoxymethyl-7-(3-trifluoromethyl-pyridin-2-yl)-pyrido[2,3-d]pyrimidin-4-yl]-amine]
CC(C)COCc1nc(Nc2ccc(Cl)cc2)c2ccc(-c3ncccc3C(F)(F)F)nc2n1 [Compound 249, (4-Chloro-phenyl)-[2-isobutoxymethyl-7-(3-trifluoromethyl-pyridin-2-yl)-pyrido[2,3-d]pyrimidin-4-yl]-amine]
CC(=O)c1ccc(Nc2nc(COCC(C)C)nc3nc(-c4ncccc4C(F)(F)F)ccc23)cc1 [Compound 250, 1-{4-[2-Isobutoxymethyl-7-(3-trifluoromethyl-pyridin-2-yl)-pyrido[2,3-d]pyrimidin-4-ylamino]-phenyl}-ethanone]
CCOc1ccc(Nc2nc(COCC(C)C)nc3nc(-c4ncccc4C(F)(F)F)ccc23)cc1 [Compound 251, (4-Ethoxy-phenyl)-[2-isobutoxymethyl-7-(3-trifluoromethyl-pyridin-2-yl)-pyrido[2,3-d]pyrimidin-4-yl]-amine]
CC(C)COCc1nc(Nc2ccc(F)c(F)c2)c2ccc(-c3ncccc3C(F)(F)F)nc2n1 [Compound 252, (3,4-Difluoro-phenyl)-[2-isobutoxymethyl-7-(3-trifluoromethyl-pyridin-2-yl)-pyrido[2,3-d]pyrimidin-4-yl]-amine]
Cc1cc(Nc2nc(COCC(C)C)nc3nc(-c4ncccc4C(F)(F)F)ccc23)ccc1F [Compound 253, (4-Fluoro-3-methyl-phenyl)-[2-isobutoxymethyl-7-(3-trifluoromethyl-pyridin-2-yl)-pyrido[2,3-d]pyrimidin-4-yl]-amine]
CC(C)COCc1nc(Nc2ccc(F)c(C(F)(F)F)c2)c2ccc(-c3ncccc3C(F)(F)F)nc2n1 [Compound 254, (4-Fluoro-3-trifluoromethyl-phenyl)-[2-isobutoxymethyl-7-(3-trifluoromethyl-pyridin-2-yl)-pyrido[2,3-d]pyrimidin-4-yl]-amine]
CC(C)COCc1nc(Nc2ccc(Cl)c(C(F)(F)F)c2)c2ccc(-c3ncccc3C(F)(F)F)nc2n1 [Compound 255, (4-Chloro-3-trifluoromethyl-phenyl)-[2-isobutoxymethyl-7-(3-trifluoromethyl-pyridin-2-yl)-pyrido[2,3-d]pyrimidin-4-yl]-amine]
COc1ccc(Nc2nc(COCC(C)C)nc3nc(-c4ncccc4C(F)(F)F)ccc23)cc1C(F)(F)F [Compound 256, [2-Isobutoxymethyl-7-(3-trifluoromethyl-pyridin-2-yl)-pyrido[2,3-d]pyrimidin-4-yl]-(4-methoxy-3-trifluoromethyl-phenyl)-amine]
Cc1ccc(Nc2nc(COCC(C)C)nc3nc(-c4ncccc4C(F)(F)F)ccc23)cc1C [Compound 257, (3,4-Dimethyl-phenyl)-[2-isobutoxymethyl-7-(3-trifluoromethyl-pyridin-2-yl)-pyrido[2,3-d]pyrimidin-4-yl]-amine]
COc1ccc(Nc2nc(COCC(C)C)nc3nc(-c4ncccc4C(F)(F)F)ccc23)cc1F [Compound 258, (3-Fluoro-4-methoxy-phenyl)-[2-isobutoxymethyl-7-(3-trifluoromethyl-pyridin-2-yl)-pyrido[2,3-d]pyrimidin-4-yl]-amine]
CC(C)COCc1nc(Nc2ccc(F)cc2)c2ccc(-c3ncccc3Cl)nc2n1 [Compound 259, [7-(3-Chloro-pyridin-2-yl)-2-isobutoxymethyl-pyrido[2,3-d]pyrimidin-4-yl]-(4-fluoro-phenyl)-amine]
